Several values for one entry are separate records, joined by “and”; a condition that tells them apart may be missing. Identical values can stand only once. Like-named read-outs stand apart in the source and are kept apart here.
Columns and labels:
hCA I = target: T1, hCA I (Homo sapiens, UniProt P00915); experiment: stopped-flow CO2 hydrase assay, hCA I; assay type: biochemical
T1 construct: made in house
Protocol: (§1) Newly synthesized hybrids 5a–n were tested for their inhibitory activity against four physiologically and pharmacologically CA isoforms, namely cytosolic hCA I and II, and tumor-associated isoforms hCA IX and XII, using a CO2 hydrase stop-flow assay. Acetazolamide (AAZ), clinically used sulphonamide, was used as the standard drug. […] The ability of imidazoles 5a–n toward inhibition of hCA I, II (cytosolic) as well as hCA IX and XII (transmembrane, tumor-associated isoforms) using stopped-flow CO2 hydrase assay was evaluated. See Appendix A.
(§2) The enzymes are recombinant proteins prepared in our lab. […] The uncatalyzed rates were determined in the same manner and subtracted from the total observed rates. Stock solutions of inhibitor (0.1 mM) were prepared in distilled-deionized water and dilutions up to 0.01 nM were done thereafter with the assay buffer. Inhibitor and enzyme solutions were preincubated together for 15 min at room temperature prior to assay, in order to allow for the formation of the E-I complex. The inhibition constants were obtained by non-linear least-squares methods using PRISM 3 and the Cheng-Prusoff equation, and represent the mean from at least three different determinations.

hCA II = target: T2, hCA II (Homo sapiens, UniProt P00918); experiment: stopped-flow CO2 hydrase assay, hCA II; assay type: biochemical
T2 construct: made in house
Protocol: as §1, §2

hCA IX = target: T3, hCA IX (Homo sapiens, UniProt Q16790); experiment: stopped-flow CO2 hydrase assay, hCA IX; assay type: biochemical; conditions: for IC50: quoted in docking discussion, read-out: IC50 CA-IX (in vitro inhibitory activity quoted in docking study); for Selectivity Ratio hCA XII/ hCA IX: selectivity for hCA IX over hCA XII; for Ki: stopped-flow CO2 hydrase assay
T3 construct: made in house
Protocol: as §1, §2

hCA XII = target: T4, hCA XII (Homo sapiens, UniProt O43570); experiment: stopped-flow CO2 hydrase assay, hCA XII; assay type: biochemical
T4 construct: made in house
Protocol: Newly synthesized hybrids 5a–n were tested for their inhibitory activity against four physiologically and pharmacologically CA isoforms, namely cytosolic hCA I and II, and tumor-associated isoforms hCA IX and XII, using a CO2 hydrase stop-flow assay. Acetazolamide (AAZ), clinically used sulphonamide, was used as the standard drug. […]. The ortho substitution in the aryl moiety appears to correlate with higher inhibitory effects against both hCA IX and XII. […] […]. The ability of imidazoles 5a–n toward inhibition of hCA I, II (cytosolic) as well as hCA IX and XII (transmembrane, tumor-associated isoforms) using stopped-flow CO2 hydrase assay was evaluated. See Appendix A.
The carbonic anhydrase catalyzed CO2 hydration actions for all new compounds herein reported have were assayed utilizing an instrument of Applied Photophysics stopped-flow. The enzymes are recombinant proteins prepared in our lab. […]. The uncatalyzed rates were determined in the same manner and subtracted from the total observed rates. Stock solutions of inhibitor (0.1 mM) were prepared in distilled-deionized water and dilutions up to 0.01 nM were done thereafter with the assay buffer. Inhibitor and enzyme solutions were preincubated together for 15 min at room temperature prior to assay, in order to allow for the formation of the E-I complex. The inhibition constants were obtained by non-linear least-squares methods using PRISM 3 and the Cheng-Prusoff equation, and represent the mean from at least three different determinations.

[1] = Cell viability assay (MTT); assay type: cell-based; conditions: human, MCF-10A mammary gland epithelial cells, MCF-10A cells, incubated 4 days
Protocol: Cell viability assay was carried out using human mammary gland epithelial cell line (MCF-10A). MCF-10A cells were incubated with compounds 5b, 5d, 5e, 5g, 5j and 5n for 4 days and MTT assay was used to determine the viability of cells. See Appendix A.
MTT assay was carried out to study the effect of compounds on mammary epithelial cells (MCF-10A). The medium in which cells were propagated contained Dulbecco’s modified Eagle’s medium (DMEM)/Ham’s F-12 medium (1:1) supplemented with epidermal growth factor (20 ng/mL), hydrocortisone (500 ng/mL), insulin (10 μg/mL), 2 mM glutamine and 10% fetal calf serum. After every 2–3 days, the cells were passaged using trypsin ethylenediamine tetra acetic acid (EDTA). The cells were seeded at a density of 10^4 cells mL^−1 in flat-bottomed culture plates containing 96 wells each. After 24 h, medium was removed from the plates and the compounds in (in 0.1% DMSO) were added (in 200 μL medium to yield a final concentration of 0.1% v/v) to the wells of plates. A single compound was designated with four wells followed by incubation of plates for 96 h at 37 °C. After incubation, medium was removed completely from the plates followed by addition of MTT (0.4 mg/mL in medium) to each well and subsequent incubation of plates for 3 h. MTT (along with the medium) was removed and DMSO (150 μL) was added to each well of the culture plates, followed by vortexing and subsequent measurement of absorbance (at 540 nm) using microplate reader. The data are shown as percentage inhibition of proliferation in comparison with controls containing 0.1% DMSO.

[2] = system: epithelial cancer cell line (A-549); experiment: Antiproliferative activity, MTT assay, A-549; assay type: cell-based; conditions: Homo sapiens, A549; A-549, MTT; read-out: Antiproliferative Activity IC50 ± SEM A-549
Protocol: (§3) The antiproliferative activity of 5b, 5d, 5e, 5g, 5j and 5n against four human cancer cell lines including pancreatic cancer cell line (Panc-1), breast cancer cell line (MCF-7), colon cancer cell line (HT-29) and epithelial cancer cell line (A-549) using MTT assay and doxorubicin was applied as the reference compound [22, 23]. Graph Pad Prism software (Graph Pad Software, San Diego, CA, USA) was used to calculate the median inhibition concentration (IC50) and results are recorded in Table 2.
(§4) The antiproliferative activity of 5b, 5d, 5e, 5g, 5j and 5n against four human cancer cell lines including pancreatic cancer cell line (Panc-1), breast cancer cell line (MCF-7), colon cancer cell line (HT-29) and epithelial cancer cell line (A-549) using MTT assay and doxorubicin was applied as the reference compound [22, 23]. See Appendix A.
(§5) To explore the antiproliferative potential of compounds MTT assay was performed according to previously reported procedure using different cell lines To explore the antiproliferative potential of compounds propidium iodide fluorescence assay was performed using different cell lines. To calculate the total nuclear DNA, a fluorescent dye (propidium iodide, PI) is used which can attach to the DNA, thus offering a quick and precise technique. PI cannot pass through the cell membrane and its signal intensity can be considered as directly proportional to quantity of cellular DNA. Cells whose cell membranes are damaged or have changed permeability are counted as dead ones. The assay was performed by seeding the cells of different cell lines at a density of 3000–7500 cells/well (in 200 µL medium) in culture plates followed by incubation for 24 h at 37 °C in humidified 5% CO2/95% air atmospheric conditions. The medium was removed; the compounds were added to the plates at 10 µM concentrations (in 0.1% DMSO) in triplicates, followed by incubation for 48 h. DMSO (0.1%) was used as control. After incubation, medium was removed followed by the addition of PI (25 µL, 50µg/mL in water/medium) to each well of the plates. At −80 °C, the plates were allowed to freeze for 24 h, followed by thawing at 25 °C. A fluorometer (Polar-Star BMG Tech, Offenburg, Germany) was used to record the readings at excitation and emission wavelengths of 530 and 620 nm for each well. The percentage cytotoxicity of compounds was calculated using the following formula: %Cytotoxicity=(Ac−Atc)/Ac×100 where Atc = Absorbance of treated cells and Ac = Absorbance of control. Erlotinib was used as positive control in the assay.

[3] = system: breast cancer cell line (MCF-7); experiment: Antiproliferative activity, MTT assay, MCF-7; assay type: cell-based; conditions: Homo sapiens, MCF7; MCF-7, MTT; read-out: Antiproliferative Activity IC50 ± SEM MCF-7
Protocol: as §3, §4, §5

[4] = system: pancreatic cancer cell line (Panc-1); experiment: Antiproliferative activity, MTT assay, Panc-1; assay type: cell-based; conditions: Homo sapiens; Panc-1, MTT; read-out: Antiproliferative Activity IC50 ± SEM Panc-1
Protocol: as §3, §4, §5

[5] = system: colon cancer cell line (HT-29); experiment: Antiproliferative activity, MTT assay, HT-29; assay type: cell-based; conditions: Homo sapiens; HT-29, MTT; read-out: Antiproliferative Activity IC50 ± SEM HT-29
Protocol: as §3, §4, §5

[6] = system: four human cancer cell lines (Panc-1, MCF-7, HT-29, A-549); experiment: Antiproliferative activity, MTT assay, average of the four cell lines; assay type: cell-based; conditions: for IC50: average of A-549, MCF-7, Panc-1, HT-29
Protocol: as §3, §4, §5

[7] = stopped-flow CO2 hydrase assay, read-out: Ki hCA I
[8] = four cancer cell lines, read-out: GI50

T1 sequence (P00915 whole entry): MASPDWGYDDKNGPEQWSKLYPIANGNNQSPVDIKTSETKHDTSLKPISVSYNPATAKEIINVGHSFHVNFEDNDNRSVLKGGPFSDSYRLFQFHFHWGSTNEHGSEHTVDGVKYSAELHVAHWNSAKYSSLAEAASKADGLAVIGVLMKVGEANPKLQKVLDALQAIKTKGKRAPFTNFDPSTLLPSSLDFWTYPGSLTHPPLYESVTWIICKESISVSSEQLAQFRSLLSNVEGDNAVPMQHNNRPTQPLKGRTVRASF
T4 sequence (O43570 25-354): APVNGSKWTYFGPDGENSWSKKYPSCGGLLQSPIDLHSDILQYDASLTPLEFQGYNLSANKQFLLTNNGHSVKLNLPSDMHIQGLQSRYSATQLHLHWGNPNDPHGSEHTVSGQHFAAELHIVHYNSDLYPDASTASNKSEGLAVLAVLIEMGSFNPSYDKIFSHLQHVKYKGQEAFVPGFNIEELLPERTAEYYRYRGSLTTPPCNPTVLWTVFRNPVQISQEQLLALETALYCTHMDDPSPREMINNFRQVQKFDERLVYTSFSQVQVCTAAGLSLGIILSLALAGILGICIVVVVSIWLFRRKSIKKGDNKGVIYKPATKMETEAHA

| Structure (SMILES) | Ki (hCA I; [7]) [µM] | Ki (hCA II) [µM] | IC50 (hCA IX) [µM] | Selectivity Ratio hCA XII/ hCA IX (hCA IX) | Ki (hCA IX) | Ki (hCA XII) [µM] | IC50 [2] [µM] | IC50 [3] [µM] | IC50 [4] [µM] | IC50 [5] [µM] | IC50 [6] [µM] | GI50 [6, 8] [µM] | Ki (hCA I) [µM] | melting point [°C] | GI50 ([6]; mean of four cell lines, read-out: mean GI50 against the four cell lines) [µM] | viability at 96 h [1] [%] |
| --- | --- | --- | --- | --- | --- | --- | --- | --- | --- | --- | --- | --- | --- | --- | --- | --- |
| NS(=O)(=O)c1ccc(-n2c(-c3ccccc3[N+](=O)[O-])nc(-c3ccccc3)c2-c2ccccc2)cc1 [Compound 5j, 4-(2-(2-Nitrophenyl)-4,5-diphenyl-1H-imidazol-1-yl)benzene sulfonamide] | – | > 100 | – | 5.60 | 1.1 µM | 6.2 | 4.6 ± 0.6 | 3.6 ± 0.2 | 4.6 ± 0.9 | 4.8 ± 0.4 | 4.4 | – | > 100 | 280 to 282 | – | 88 |
| COc1ccccc1-c1nc(-c2ccccc2)c(-c2ccccc2)n1-c1ccc(S(N)(=O)=O)cc1 [Compound 5g, 4-(2-(2-Methoxyphenyl)-4,5-diphenyl-1H-imidazol-1-yl)benzene sulfonamide] | > 100 | > 100 | 0.32 | 12.00 | 0.32 µM and 0.3 µM | 3.7 | 2.4 ± 0.5 | 2.1 ± 0.2 | 2.2 ± 0.4 | 2.4 ± 0.4 | 2.3 | 2.3 | – | – | – | 90 |
| NS(=O)(=O)c1ccc(-n2c(-c3c(Cl)cccc3Cl)nc(-c3ccccc3)c2-c2ccccc2)cc1 [Compound 5d, 4-(2-(2,6-Dichlorophenyl)-4,5-diphenyl-1H-imidazol-1-yl)benzene sulfonamide] | – | > 100 | 0.72 | 7.00 | 0.72 µM and 0.7 µM | 4.9 | 3.1 ± 0.6 | 3.9 ± 0.4 | 3.8 ± 0.3 | 3.1 ± 0.4 | 3.5 | – | > 100 | 214 to 216 | 3.5 | 87 |
| NS(=O)(=O)c1ccc(-n2c(-c3cccs3)nc(-c3ccccc3)c2-c2ccccc2)cc1 [Compound 5n, 4-(4,5-Diphenyl-2-(thiophen-2-yl)-1H-imidazol-1-yl)benzene sulfonamide] | – | > 100 | – | 5.00 | 1.3 µM | 6.4 | 4.7 ± 0.6 | 4.6 ± 0.6 | 4.8 ± 0.3 | 4.8 ± 0.2 | 4.7 | – | > 100 | 290 to 292 | – | 90 |

The remaining compounds from weak to strong by IC50 [2], led by results:

| Ki (hCA I; [7]) [µM] | Ki (hCA II) [µM] | IC50 (hCA IX) [µM] | Selectivity Ratio hCA XII/ hCA IX (hCA IX) | Ki (hCA IX) | Ki (hCA XII) [µM] | IC50 [2] [µM] | IC50 [3] [µM] | IC50 [4] [µM] | IC50 [5] [µM] | IC50 [6] [µM] | GI50 [6, 8] [µM] | Ki (hCA I) [µM] | melting point [°C] | GI50 ([6]; mean of four cell lines, read-out: mean GI50 against the four cell lines) [µM] | Structure (SMILES) | viability at 96 h [1] [%] |
| --- | --- | --- | --- | --- | --- | --- | --- | --- | --- | --- | --- | --- | --- | --- | --- | --- |
| – | > 100 | – | 6.50 | 0.84 µM and 0.8 µM | 5.2 | 4.4 ± 0.7 | 3.6 ± 0.8 | 3.7 ± 0.5 | 3.9 ± 0.6 | 3.9 | – | > 100 | – | – | NS(=O)(=O)c1ccc(-n2c(-c3ccccc3O)nc(-c3ccccc3)c2-c2ccccc2)cc1 [Compound 5e, 4-(2-(2-Hydroxyphenyl)-4,5-diphenyl-1H-imidazol-1-yl)benzene sulfonamide] | 86 |
| > 100 | > 100 | 0.36 | 11.50 | 0.36 µM and 0.4 µM | 4.6 | 2.8 ± 0.5 | 2.7 ± 0.4 | 2.5 ± 0.2 | 3.1 ± 0.1 | 2.8 | 2.8 | – | – | – | NS(=O)(=O)c1ccc(-n2c(-c3ccccc3Br)nc(-c3ccccc3)c2-c2ccccc2)cc1 [Compound 5b, 4-(2-(2-Bromophenyl)-4,5-diphenyl-1H-imidazol-1-yl)benzene sulfonamide] | 91 |
| – | – | – | – | – | – | 1.2 ± 0.8 | 0.9 ± 0.6 | 1.4 ± 0.6 | 1 ± 0.8 | 1.1 | 1.1 | – | – | – | COc1cccc2c1C(=O)c1c(O)c3c(c(O)c1C2=O)C[C@@](O)(C(=O)CO)C[C@@H]3O[C@H]1C[C@H](N)[C@H](O)[C@H](C)O1 [Doxorubicin, reference compound] | – |
